Laboratory results published in patent US20210230179A1, “THIENO[2,3-B]PYRIDINE DERIVATIVES AS EPAC INHIBITORS AND THEIR PHARMACEUTICAL USES” (INSTITUT NATIONAL DE LA SANTE ET DE LA RECHERCHE MEDICALE …, priority 2018, published 2021).
Read-outs that look alike come from different tables or passages of the source.

How the values were obtained:
Epac1 = molecular target: T1, Epac1 (Homo sapiens, UniProt O95398); assay: biochemical; details: for IC50: read-out: IC50, Epac1 GEF activity
T1 sequence (O95398 191-923 limits assumed): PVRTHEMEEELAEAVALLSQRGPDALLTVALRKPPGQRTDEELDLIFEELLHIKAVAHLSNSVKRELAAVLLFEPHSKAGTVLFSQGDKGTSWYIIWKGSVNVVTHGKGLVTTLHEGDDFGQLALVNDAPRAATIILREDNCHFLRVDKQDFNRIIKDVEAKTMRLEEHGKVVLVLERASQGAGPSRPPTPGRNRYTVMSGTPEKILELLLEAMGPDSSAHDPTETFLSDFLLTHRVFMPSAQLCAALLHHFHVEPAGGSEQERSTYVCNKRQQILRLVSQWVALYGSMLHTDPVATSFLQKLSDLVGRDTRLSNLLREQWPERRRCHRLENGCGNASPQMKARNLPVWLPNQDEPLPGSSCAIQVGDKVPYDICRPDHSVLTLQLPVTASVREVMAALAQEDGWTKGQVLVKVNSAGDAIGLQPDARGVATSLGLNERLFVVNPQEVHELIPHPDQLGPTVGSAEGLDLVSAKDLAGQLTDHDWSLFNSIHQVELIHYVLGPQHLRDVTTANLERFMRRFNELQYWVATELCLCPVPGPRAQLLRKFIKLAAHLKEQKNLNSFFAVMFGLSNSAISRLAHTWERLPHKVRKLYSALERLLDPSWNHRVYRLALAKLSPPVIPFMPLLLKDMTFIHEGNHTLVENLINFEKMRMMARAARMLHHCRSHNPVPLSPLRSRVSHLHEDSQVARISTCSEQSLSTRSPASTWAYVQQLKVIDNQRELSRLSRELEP
Source text: FIGS. 4-8. […] Variations of relative fluorescence units (RFU) were studied as a function of time and fitted to single exponentials.

[1] = tested on: isolated adult cardiomyocytes; assay: hypoxia-reoxygenation injury of isolated adult cardiomyocytes (LDH release); format: cell-based, mouse
mice = details: single i.v. bolus 8 mg/kg 5 min before reperfusion; 45 min occlusion, 24 h reperfusion
Experimental: Statistical significance was determined by two-way ANOVA followed by Bonferroni post-test or t-test. *p<0.01, **p<0.01, ***p<0.001, versus indicated values
Mice were anesthetized with intraperitoneal ketamine (60 mg/kg) and xylazine (6 mg/kg), intubated and ventilated mechanically. Anesthesia was maintained throughout the chirurgical procedure with 1.5% isoflurane. Body temperature was maintained at 37° C. A left thoracotomy was performed in order to enable coronary artery occlusion with a 7-0 Prolene thread placed around the left coronary artery for 45 min, followed by 24 h of reperfusion. […] Myocardial ischemia was confirmed by the presence of regional cyanosis. Reperfusion was confirmed by visualization of a hyperemic response. At this point, the chest was closed in layers. 24 h after reperfusion, mice were anesthetized again, the coronary artery was reoccluded at the previous site, and the heart was excised after Evans blue perfusion. The area at risk and the infarct area were respectively determined by Evans blue and 2,3,5-triphenyltetrazolium chloride (TTC) staining. The area at risk was identified as the non-blue region and expressed as a percentage of the left ventricle weight. The infarcted area was identified as the TTC negative zone and expressed as a percentage of area at risk.

wild-type C57BL/6 mice = assay: chronic ISO infusion (chronic β-AR activation): cardiac function, remodelling, tolerability
Source text: FIG. 17: AST and ALT activities in the serum of mice treated under the indicated conditions (left panel) (n=7 per group). Comparison of FS in animals between day 1 and day 14 in the presence or absence of AM-001 (right panel) (n=12 per group).
FIG. 18: LVW/TL ratios of mice after 14 days of treatment with vehicle or AM-001.
FIG. 20: Comparison of FS, LVIDs and LVIDd in ISO treated animals between day 1 and day 14 in the presence or absence of AM-001 (n=18-20 per group).
FIG. 21: Representative immunoblots of Epac1, GRK2, and GRK5. Statistical significance was determined by two-way ANOVA followed by Bonferroni post-test. * p<0.05, ** p<0.01, *** p<0.001, **** p<0.0001 vs indicated values. ns, not significant.
Osmotic mini-pumps (Alzet) were implanted subcutaneously in mice anaesthetized with isoflurane (1%). Pumps were filled with ISO or sterile saline and were set to deliver ISO at 60 mg/kg per day for 14 days to induce cardiac hypertrophy. AM-001 treatment (10 mg/kg/d diluted in 10% DMSO/20% Kolliphor/70% sterile saline) is given from the third day of ISO infusion. Mice were subsequently euthanized with barbiturate overdose (pentobarbital, 150 mg/kg, i.p.) and mini-pumps were weighed in order to verify complete diffusion.
Echocardiography was carried out on lightly anaesthetized (1% isoflurane in air) mice placed on a heating pad. The left ventricle dimensions were obtained during TimeMouvement mode acquisition from the parasternal short-axis view at the midventricular level of the papillary muscles using a Vevo2100 ivid7 echograph and a […] transducer (M550i13L, VisualsonicsGE Healthcare). Images were transferred and analysed off line with Vevolab software EchoPAC (GE Healthcare).
Determination of fibrosis Hearts were transversely sectioned at 10 μm thickness, fixed with 4% paraformaladehyde and stained with Sirius Red. Slides were scanned with NanoZoomer (Hamamatsu v1.2) and fibrosis was measured as positively stained area with Sirius Red and expressed as percent of total area, using ImageJ software (RSB).
Hearts were collected, fixed in 4% paraformaldehyde, dehydrated, and embedded in OCT tissue embedding compound (Tissue Tek, EMS). Longitudinal sections were performed at 10 μm in thickness and stained with hematoxylin and eosin for histological examination.
Aspartate aminotransferase (AST) and alanine aminotransferase (ALT) were measured in serum to determine the cytotoxicity, using specific kits purchased from ScienCell Research Laboratories following the manufacturer's instructions.
The inventors next sought to determine whether AM-001 could provide improvement in cardiac function and remodelling during chronic p-AR activation.

[2] = ISO 60 mg/kg per day 14 days, AM-001 10 mg/kg from day 3

SMILES: Nc1c(C(=O)Nc2ccc(F)cc2)sc2nc(-c3cccs3)cc(-c3ccccc3)c12 [AM-001, 3-amino-N-(4-fluorophenyl)-4-phenyl-6-(thiophen-2-yl)thieno[2,3-b]pyridine-2-carboxamide]
- effect on Epac1 GEF (exchange) activity (Epac1; 30 μM Sp-8-CPT, 20 μM inhibitor): prevented Epac1 GEF activity
- IC50 (Epac1; Sp-8-CPT at its EC50 for the isoform): 47.8 ± 1.1 µM
- IC50 (Epac1; saturating concentration of Sp-8-CPT): 48.5 ± 1 µM
- effect on 8-CPT-AM-induced cardiomyocyte death and hypertrophy ([1]; AM-001 20 μM, 8-CPT-AM 10 μM): inhibited the effect
- cardiomyocyte survival by LDH release ([1]; HX+R condition, 20 μM, 30 min pretreatment, vs control cells): significantly increased cardiomyocyte survival
- ratio of infarct size to area-at-risk (mice): 36±3%
- liver and renal histology (H & E staining) (wild-type C57BL/6 mice; 10 mg/kg i.p. day 3 to day 14): did not display any apparent histological alterations
- plasma level of alanine aminotransferase (ALT) (wild-type C57BL/6 mice; 10 mg/kg i.p. day 3 to day 14): equivalent in each group
- plasma level of aspartate aminotransferase (AST) (wild-type C57BL/6 mice; 10 mg/kg i.p. day 3 to day 14): equivalent in each group
- LVW/TL ratio under ISO (wild-type C57BL/6 mice; [2]): further decreased
- fibrosis (Sirius Red positive area, percent of total area) (wild-type C57BL/6 mice; [2]): 1.1±0.5%
- left ventricular end-diastolic internal diameter (LVIDd) (wild-type C57BL/6 mice; during ISO treatment): decrease
- left ventricular end-systolic internal diameter (LVIDs) (wild-type C57BL/6 mice; during ISO treatment): decrease
- ISO-induced upregulation of GRK5 expression (wild-type C57BL/6 mice; immunoblot, ISO treated animals): significantly reduced
- fractional shortening (FS) after 14 days of ISO (wild-type C57BL/6 mice; vs vehicle treated mice): higher FS
